Assay results reported in PubChem BioAssay (NCI).
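Growth conditions: 96-well plates. Treatment: test compound, 48 hours, 5 concentrations. Analysis: linear interpolation between bracketing concentrations; unreached endpoints set to highest concentration. TGI: concentration producing complete growth inhibition.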 Peptide text beside a SMILES is read from it. * marks the point of attachment. Boc = CC(C)(C)OC(=O)*

Columns and labels:
Assay in all cases: DTP human tumour cell line panel, 48 h
OVCAR-5 ovarian = system: OVCAR-5 ovarian
MCF7 breast = system: MCF7 breast
COLO 205 colon = system: COLO 205 colon
CAKI-1 renal = system: CAKI-1 renal
MDA-N = system: MDA-N
SR leukemia = system: SR leukemia
HS 578T breast = system: HS 578T breast
SF-539 CNS = system: SF-539 CNS
HOP-92 NSCLC = system: HOP-92 NSCLC
OVCAR-8 ovarian = system: OVCAR-8 ovarian

| SMILES | TGI (OVCAR-5 ovarian) [µM] | TGI (MCF7 breast) [µM] | TGI (COLO 205 colon) [µM] | TGI (CAKI-1 renal) [µM] | TGI (MDA-N) [µM] | TGI (SR leukemia) [µM] | TGI (HS 578T breast) [µM] | TGI (SF-539 CNS) [µM] | TGI (HOP-92 NSCLC) [µM] | TGI (OVCAR-8 ovarian) [µM] |
| --- | --- | --- | --- | --- | --- | --- | --- | --- | --- | --- |
| COc1ccc([C@@]23CCC(=O)C[C@@H]2N(C)CC3)cc1OC | > 100 | > 100 | > 100 | > 100 | > 100 | > 100 | > 100 | > 100 | > 100 | > 100 |
| CC1=CC(c2ccccc2)n2c(nc3cc4ccccc4cc32)N1 (stereo not given) | > 100 | > 100 | > 100 | > 100 | > 100 | > 100 | > 100 | > 100 | > 100 | > 100 |
| O=C1N2CCc3c([nH]c4ccccc34)C23CC2CCCC12S3 (stereo not given) | > 50 | > 50 | > 50 | > 50 | > 50 | > 50 | > 50 | > 50 | > 50 | > 50 |
| CSCCC(NC(=O)C(CC(C)C)NC(=O)CNC(=O)OC(C)(C)C)C(=O)N(C)C (stereo not drawn) (Boc-Gly-Leu-Met-NMe2; configuration not given here) | > 100 | > 100 | > 100 | > 100 | > 100 | > 100 | > 100 | > 100 | > 100 | > 100 |
| CSC1(SC)CCCCCCCCCCC1 | > 100 | 38.1 | 33.9 | > 100 | > 100 | > 100 | > 100 | > 100 | 87.5 | > 100 |
| CC(=O)Nc1ncc2c(n1)-c1ccccc1OC2 | > 100 | > 100 | > 100 | > 100 | > 100 | > 100 | 94.4 | > 100 | > 100 | > 100 |
| BrCC[P+](c1ccccc1)(c1ccccc1)c1ccccc1 | 26.8 | 30.5 | 17.6 | 25.2 | 7.59 | 27.5 | 50.5 | 35.3 | 13.1 | 21.9 |
| CC(=O)OCC1OC(n2c3c(c(-c4ccco4)c(C#N)c2=S)CCCC3)C(OC(C)=O)C(OC(C)=O)C1OC(C)=O (stereo not given) | > 31.6 | > 100 | > 31.6 | 87.8 | > 31.6 | > 31.6 | 85.6 | > 31.6 | 19.3 | > 100 |
| COc1cc(O)c2c(c1)C(O)C(O)CC1OC1C(=O)/C=C/CC(C)OC2=O (stereo not given) | 31 | 16.3 | 16.1 | 11.5 | 21.6 | > 45.4 | 59.5 | 17.9 | 2.72 | 25 |
| O=C(O)c1ccccc1-c1ccccc1C(=O)c1ccccc1 | > 100 | > 100 | > 100 | > 100 | > 100 | > 100 | > 100 | > 100 | > 100 | > 100 |
| COc1ccc(C[C@H]2COC(=O)[C@@H]2Cc2cc(OC)c(OC)c(OC)c2)cc1OC | > 100 | > 100 | > 100 | > 100 | > 100 | > 100 | > 100 | > 100 | > 100 | > 100 |
| C[C@@H](C[C@@H](O)[C@H](O)C(C)(C)O)[C@H]1CC=C2[C@]3(C)[C@H](O)C[C@H]4C(C)(C)[C@H](O)CC[C@]4(C)[C@H]3CC[C@@]21C | 33.4 | 36.7 | 28.5 | 30 | 29.5 | > 100 | 50.4 | 35.7 | 27.1 | 33.8 |
| Cc1cc(S(=O)(=O)NC(=NCC(=O)NN)NN)c(S)cc1Cl | > 10 | > 10 | > 10 | > 10 | > 10 | > 10 | > 10 | > 10 | > 10 | > 10 |
| CCCCCCCC(CC(=O)O)OC(=O)CC(CCCCCCC)OC1OC(C)C(O)C(O)C1OC1OC(C)C(O)C(O)C1O (stereo not given) | > 100 | > 100 | > 100 | > 100 | > 100 | > 100 | > 100 | > 100 | > 100 | > 100 |
| CC(C)[Si]1(C(C)C)OCC2OC(n3cnc4c(N)ncnc43)C(N)C2O[Si](C(C)C)(C(C)C)O1 (stereo not given) | 67.6 | 8.56 | 23.9 | 35.3 | 24.3 | > 27.1 | 44.5 | 24.4 | 33 | 25.1 |
| c1ccc(COc2ncccc2C2SCCCS2)cc1 | > 100 | > 100 | > 100 | > 100 | > 100 | > 100 | > 100 | > 100 | > 100 | > 100 |
| O=C1O/C(=C\c2ccc(O)cc2)C(c2ccc(O)c(Cl)c2)=C1Br | 35.4 | 37.1 | 33.4 | 49.3 | > 100 | 21 | 59.1 | 29.1 | 32.1 | 73.8 |
| COc1cc2c(cc1OC)C1Cc3ccccc3CN1CCC2 (stereo not given) | > 100 | > 100 | > 100 | > 100 | > 100 | > 100 | > 100 | > 100 | > 100 | > 100 |
